Common to all, as to design: key: 0: no positive effect; 10: slight positive effect; 20: clear positive effect; 30: strong positive effect
The test system of one test is Brassica napus (BRSNS). Description: In vivo analyses Part B: drought stress, appearance vs stressed control plants in categories (BRSNS). The settings on record: spray application 250 g/ha, category vs stressed control plants, 2-3 pots. Here is the method:
Seeds of monocotyledonous and dicotyledonous crop plants were sown in sandy loam in plastic pots, covered with soil or sand and cultivated in a greenhouse under good growth conditions. The test plants were treated at the early leaf stage (BBCH10-BBCH13). To assure uniform water supply before commencement of stress, the potted plants were supplied with water by dam irrigation prior to substance application. The inventive compounds, formulated in the form of wettable powders (WP), were sprayed onto the green parts of the plants as an aqueous suspension at an equivalent water application rate of 600 I/ha with addition of 0.2% wetting agent (e.g. agrotin). Substance application was followed immediately by stress treatment of the plants. Drought stress was induced by gradual drying out under the following conditions: “Day”: 14 hours with illumination at 26-30° C. “Night”: 10 hours without illumination at 18-20° C. The duration of the respective stress phases was guided mainly by the condition of the stressed control plants. It was ended (by re-irrigating and transfer to a greenhouse with good growth conditions) as soon as irreversible damage was observed on the stressed control plants. The end of the stress phase was followed by an about 4-7-day recovery phase, during which the plants were once again kept under good growth conditions in a greenhouse. The duration of the recovery phase was guided mainly by when the trial plants had attained a state which enabled visual scoring of potential effects, and was therefore variable. Once this juncture had been reached, the appearance of the plants treated with test substances was recorded in comparison to the stressed control plants by the following categories: [table] In order to rule out any influence on the effects observed by any fungicidal or insecticidal action of the test compounds, it was additionally ensured that the tests proceeded without fungal infection or insect infestation. For each substance and dosage, 2-3 pots were treated and evaluated. BRSNS=Brassica napus

A further test deals with Zea mays (ZEAMX). Description: In vivo analyses Part B: drought stress, appearance vs stressed control plants in categories (ZEAMX). The settings on record: spray application 25 g/ha, category vs stressed control plants, 2-3 pots. Here is the method: Seeds of monocotyledonous and dicotyledonous crop plants were sown in sandy loam in plastic pots, covered with soil or sand and cultivated in a greenhouse under good growth conditions. The test plants were treated at the early leaf stage (BBCH10-BBCH13). To assure uniform water supply before commencement of stress, the potted plants were supplied with water by dam irrigation prior to substance application. The inventive compounds, formulated in the form of wettable powders (WP), were sprayed onto the green parts of the plants as an aqueous suspension at an equivalent water application rate of 600 I/ha with addition of 0.2% wetting agent (e.g. agrotin). Substance application was followed immediately by stress treatment of the plants. Drought stress was induced by gradual drying out under the following conditions: “Day”: 14 hours with illumination at 26-30° C. “Night”: 10 hours without illumination at 18-20° C. The duration of the respective stress phases was guided mainly by the condition of the stressed control plants. It was ended (by re-irrigating and transfer to a greenhouse with good growth conditions) as soon as irreversible damage was observed on the stressed control plants. The end of the stress phase was followed by an about 4-7-day recovery phase, during which the plants were once again kept under good growth conditions in a greenhouse. The duration of the recovery phase was guided mainly by when the trial plants had attained a state which enabled visual scoring of potential effects, and was therefore variable. Once this juncture had been reached, the appearance of the plants treated with test substances was recorded in comparison to the stressed control plants by the following categories: [table] In order to rule out any influence on the effects observed by any fungicidal or insecticidal action of the test compounds, it was additionally ensured that the tests proceeded without fungal infection or insect infestation. For each substance and dosage, 2-3 pots were treated and evaluated. ZEAMX=Zea mays

Test [1] has as its system Triticum aestivum (TRZAS). Description: In vivo analyses Part B: drought stress, appearance vs stressed control plants in categories (TRZAS). The settings on record: spray application 250 g/ha, category vs stressed control plants, 2-3 pots. Here is the method: Seeds of monocotyledonous and dicotyledonous crop plants were sown in sandy loam in plastic pots, covered with soil or sand and cultivated in a greenhouse under good growth conditions. The test plants were treated at the early leaf stage (BBCH10-BBCH13). To assure uniform water supply before commencement of stress, the potted plants were supplied with water by dam irrigation prior to substance application. The inventive compounds, formulated in the form of wettable powders (WP), were sprayed onto the green parts of the plants as an aqueous suspension at an equivalent water application rate of 600 I/ha with addition of 0.2% wetting agent (e.g. agrotin). Substance application was followed immediately by stress treatment of the plants. Drought stress was induced by gradual drying out under the following conditions: “Day”: 14 hours with illumination at 26-30° C. “Night”: 10 hours without illumination at 18-20° C. The duration of the respective stress phases was guided mainly by the condition of the stressed control plants. It was ended (by re-irrigating and transfer to a greenhouse with good growth conditions) as soon as irreversible damage was observed on the stressed control plants. The end of the stress phase was followed by an about 4-7-day recovery phase, during which the plants were once again kept under good growth conditions in a greenhouse. The duration of the recovery phase was guided mainly by when the trial plants had attained a state which enabled visual scoring of potential effects, and was therefore variable. Once this juncture had been reached, the appearance of the plants treated with test substances was recorded in comparison to the stressed control plants by the following categories: [table] In order to rule out any influence on the effects observed by any fungicidal or insecticidal action of the test compounds, it was additionally ensured that the tests proceeded without fungal infection or insect infestation. For each substance and dosage, 2-3 pots were treated and evaluated. TRZAS=Triticum aestivum

Experimental findings from US10322995B2, “Substituted cyano cycloalkyl penta-2,4-dienes, cyano cycloalkyl pent-2-en-4-ynes, cyano heterocyclyl penta-2,4-dienes and cyano heterocyclyl pent-2-en-4-ynes as active substances against abiotic plant stress” (BAYER CROPSCIENCE AKTIENGESELLSCHAFT, priority 2014, dated 2019) are described below.

`CCOC(=O)/C=C(\C#CC(O)(C(C)C)C1(C#N)CC1)CC` (stereo not shown) [I.1-103]: the “Effect (BRSNS)” value with Brassica napus (BRSNS) turned out to be 30. The “Effect (ZEAMX)” value in the test with Zea mays (ZEAMX) is 10-20. The “Effect (TRZAS)” value in test [1] was 10-20.

As to `COC(=O)/C=C(/C)C#CC(O)(C(C)C)C1(C#N)CC1` (stereo not shown) [I.1-135], the “Effect (BRSNS)” value in the test with Brassica napus (BRSNS) worked out at 30. The “Effect (TRZAS)” value in test [1] worked out at 30.

With `CC/C(C#CC(O)(c1ccccc1)C1(C#N)CC1)=C/C(=O)OC` (stereo not shown) [I.1-202], in the test with Brassica napus (BRSNS), the “Effect (BRSNS)” value worked out at 20. Further, in the test with Zea mays (ZEAMX), the “Effect (ZEAMX)” value is reported as 10-20. In test [1], the “Effect (TRZAS)” value worked out at 20.

Turning to `CCCOC(=O)/C=C(\C#CC(O)(C(C)C)C1(C#N)CC1)CC` (stereo not shown) [I.1-605], the “Effect (BRSNS)” value in the test with Brassica napus (BRSNS) came out at 20. Further, in test [1], the “Effect (TRZAS)” value worked out at 20.

Take `CCCOC(=O)/C=C(\C#CC(O)(c1ccccc1)C1(C#N)CC1)CC` (stereo not shown) [I.1-609]: in the test on Brassica napus (BRSNS), the “Effect (BRSNS)” value is listed as 10-20. Also, in the test on Zea mays (ZEAMX), the “Effect (ZEAMX)” value worked out at 20. Besides, the “Effect (TRZAS)” value in test [1] is recorded as 10.
